Assay results from patent US5462935A, “Cephalosporin compounds” (Lucky Limited, priority 1990, dated 1995).
≈ marks a conversion by molar mass, not a printed value.

Key:
[1] = system: Pseudomonas aeruginosa ATCC 25619; assay: minimal inhibitory concentration, two-fold agar dilution; type: cell-based; details: ATCC25619, Muller-Hinton agar, 37° C., 20 hours
Procedure: (§1) These NIC values were taken by employing a two-fold dilution method: that is, two-fold serial dilutions of each of the test compounds were made and dispersed in a Muller-Hinton agar medium; 2 μl of the standard test strain which had the 10^7 CFU (Colony Forming Unit) per ml was inoculated on the medium; and these were incubated at 37° C. for 20 hours.

[2] = system: Bacillus megaterium ATCC 9885; assay: as above; type: cell-based; details: Priestia megaterium, ATCC9885, 20 h
Procedure: as §1

[3] = system: Providencia rettgeri ATCC 9250; assay: as above; type: cell-based; details: ATCC9250, Muller-Hinton agar, 37° C., 20 hours
Procedure: as §1

[4] = system: Acinetobacter calcoaceticus ATCC 15473; assay: as above; type: cell-based; details: ATCC15473, Muller-Hinton agar, 37° C., 20 hours
Procedure: as §1

[5] = system: Klebsiella pneumoniae ATCC 10031; assay: as above; type: cell-based; details: ATCC10031, Muller-Hinton agar, 37° C., 20 hours
Procedure: as §1

[6] = system: Pseudomonas aerugionsa ATCC 10145; assay: as above; type: cell-based; details: ATCC10145, Muller-Hinton agar, 37° C., 20 hours
Procedure: as §1

ATCC 12228 = assay: as above; type: cell-based; details: Staphylococcus faecalis, ATCC12228, 20 h
Procedure: as §1

[7] = system: Serratia marcescens ATCC 27117; assay: as above; type: cell-based; details: ATCC27117, Muller-Hinton agar, 37° C., 20 hours
Procedure: as §1

[8] = system: Streptococcus faecalis ATCC 29212; assay: as above; type: cell-based; details: Enterococcus faecalis, ATCC29212, Muller-Hinton agar, 37° C., 20 hours
Procedure: as §1

[9] = system: Morganella morganii ATCC 8076h; assay: as above; type: cell-based; details: ATCC8076H, 20 h
Procedure: as §1

[10] = system: Citrobacter freundii ATCC 8090; assay: as above; type: cell-based; details: ATCC8090, Muller-Hinton agar, 37° C., 20 hours
Procedure: as §1

[11] = system: Escherichia coli ATCC 25922; assay: as above; type: cell-based; details: ATCC25922, Muller-Hinton agar, 37° C., 20 hours
Procedure: as §1

[12] = system: Enterobacter cloacae ATCC 27508; assay: as above; type: cell-based; details: ATCC27508, Muller-Hinton agar, 37° C., 20 hours
Procedure: as §1

[13] = system: Proteus mirabilis ATCC 25933; assay: as above; type: cell-based; details: ATCC25933, Muller-Hinton agar, 37° C., 20 hours
Procedure: as §1

[14] = system: Proteus vulgaris ATCC 6059; assay: as above; type: cell-based; details: ATCC6059, Muller-Hinton agar, 37° C., 20 hours
Procedure: as §1

[15] = system: Staphylococcus aureus ATCC 6638p; assay: as above; type: cell-based; details: ATCC6638P, 20 h
Procedure: as §1

[16] = system: Pseudomonas aerugionsa ATCC 27853; assay: as above; type: cell-based; details: ATCC27853, Muller-Hinton agar, 37° C., 20 hours
Procedure: as §1

[17] = system: Shigella sonnei ATCC 11060; assay: as above; type: cell-based; details: ATCC11060, Muller-Hinton agar, 37° C., 20 hours
Procedure: as §1

[18] = system: Staphylococcus epidermidis ATCC 10537; assay: as above; type: cell-based; details: ATCC10537, Muller-Hinton agar, 37° C., 20 hours
Procedure: as §1

[19] = system: Enterobacter aerogenes ATCC 29751; assay: as above; type: cell-based; details: Klebsiella aerogenes, ATCC29751, 20 h
Procedure: as §1

[20] = system: Bacillus cereus ATCC 11778; assay: as above; type: cell-based; details: Bacillus cereus, ATCC11778, 20 h
Procedure: as §1

[21] = system: Salmonella typhimurium ATCC 14028; assay: as above; type: cell-based; details: Salmonella enterica, Muller-Hinton agar, 37° C., 20 hours
Procedure: as §1

[22] = system: Shigella flexneri ATCC 11836; assay: as above; type: cell-based; details: ATCC11836, Muller-Hinton agar, 37° C., 20 hours
Procedure: as §1

[23] = system: Micrococcus luteus ATCC 9341; assay: as above; type: cell-based; details: ATCC9341, Muller-Hinton agar, 37° C., 20 hours
Procedure: as §1

[24] = system: Escherichia coli ATCC 10536; assay: as above; type: cell-based; details: ATCC10536, Muller-Hinton agar, 37° C., 20 hours
Procedure: as §1

[25] = acute toxicity test, intravenous; details: mouse, in vivo, ICR mice, observed for 14 days
From the text: The results are shown in the last row of Table 2.

Structure (SMILES)	MIC [1]	MIC [2]	MIC [3]	MIC [4]	MIC [5]	MIC [6]	MIC (ATCC 12228)	MIC [7]	MIC [8]	MIC [9]	MIC [10]	MIC [11]	MIC [12]	MIC [13]	MIC [14]	MIC [15]	MIC [16]	MIC [17]	MIC [18]	MIC [19]	other results
CCC[n+]1c(N)cc(N)nc1SCC1=C(C(=O)[O-])N2C(=O)C(NC(=O)/C(=N\O[C@@H](C)C(=O)O)c3csc(N)n3)[C@H]2SC1 (stereo partly drawn) [I-S-4, 7-[(Z)-2-(2-aminothiazol-4-yl)-2-[(S)-1-carboxyeth-1-oxyimino]acetamido]-3-[(4,6-diamino-1-propylpyrimidinium-2-yl)thiomethyl]-3-cephem-4-carboxylate]	1 µg/mL (≈ 1.57 µM)	0.5 µg/mL (≈ 0.784 µM)	≤ 0.008 µg/mL	4 µg/mL (≈ 6.27 µM)	0.031 µg/mL (≈ 0.0486 µM)	2 µg/mL (≈ 3.14 µM)	1 µg/mL (≈ 1.57 µM)	0.13 µg/mL (≈ 0.204 µM)	> 128 µg/mL	≤ 0.008 µg/mL	0.031 µg/mL (≈ 0.0486 µM)	0.031 µg/mL (≈ 0.0486 µM)	≤ 0.008 µg/mL	0.031 µg/mL (≈ 0.0486 µM)	0.031 µg/mL (≈ 0.0486 µM)	2 µg/mL (≈ 3.14 µM)	1 µg/mL (≈ 1.57 µM)	0.063 µg/mL (≈ 0.0988 µM)	1 µg/mL (≈ 1.57 µM)	1 µg/mL (≈ 1.57 µM)	MIC [20]: 32 µg/mL (≈ 50.2 µM); MIC [21]: 0.13 µg/mL (≈ 0.204 µM); MIC [22]: 0.031 µg/mL (≈ 0.0486 µM); MIC [23]: 0.13 µg/mL (≈ 0.204 µM); MIC [24]: 0.031 µg/mL (≈ 0.0486 µM); LD50 at 336 h [25]: > 3000 mg/kg
CC[n+]1c(N)cc(N)nc1SCC1=C(C(=O)[O-])N2C(=O)C(NC(=O)/C(=N\O[C@H](C)C(=O)O)c3csc(N)n3)[C@H]2SC1 (stereo partly drawn) [I-R-3, 7-[(Z)-2-(2-aminothiazol-4-yl)-2-[(R)-1-carboxyeth-1-oxyimino]acetamido]-3-[(4,6-diamino-1-ethylpyrimidinium-2-yl)thiomethyl]-3-cephem-4-carboxylate]	1 µg/mL (≈ 1.6 µM)	1 µg/mL (≈ 1.6 µM)	≤ 0.008 µg/mL	4 µg/mL (≈ 6.41 µM)	0.031 µg/mL (≈ 0.0497 µM)	2 µg/mL (≈ 3.21 µM)	1 µg/mL (≈ 1.6 µM)	0.063 µg/mL (≈ 0.101 µM)	> 128 µg/mL	≤ 0.008 µg/mL	0.063 µg/mL (≈ 0.101 µM)	0.063 µg/mL (≈ 0.101 µM)	0.016 µg/mL (≈ 0.0257 µM)	0.031 µg/mL (≈ 0.0497 µM)	0.031 µg/mL (≈ 0.0497 µM)	2 µg/mL (≈ 3.21 µM)	1 µg/mL (≈ 1.6 µM)	0.031 µg/mL (≈ 0.0497 µM)	2 µg/mL (≈ 3.21 µM)	0.5 µg/mL (≈ 0.802 µM)	MIC [20]: 128 µg/mL (≈ 205 µM); MIC [21]: 0.13 µg/mL (≈ 0.208 µM); MIC [22]: 0.031 µg/mL (≈ 0.0497 µM); MIC [23]: 0.25 µg/mL (≈ 0.401 µM); MIC [24]: 0.063 µg/mL (≈ 0.101 µM); LD50 at 336 h [25]: > 3000 mg/kg
C[C@@H](O/N=C(\C(=O)NC1C(=O)N2C(C(=O)[O-])=C(CSc3nc(N)cc(N)[n+]3-c3ccccc3)CSC12)c1csc(N)n1)C(=O)O (stereo partly drawn) [I-R-5, 7-[(Z)-2-(2-aminothiazol-4-yl)-2-[(R)-1-carboxyeth-1-oxyimino]acetamido]-3-[(4,6-diamino-1'-phenylpyrimidinium-2-yl)thiomethyl]-3-cephem-4-carboxylate]	2 µg/mL (≈ 2.98 µM)	0.5 µg/mL (≈ 0.744 µM)	≤ 0.008 µg/mL	16 µg/mL (≈ 23.8 µM)	0.063 µg/mL (≈ 0.0938 µM)	8 µg/mL (≈ 11.9 µM)	2 µg/mL (≈ 2.98 µM)	0.5 µg/mL (≈ 0.744 µM)	> 128 µg/mL	≤ 0.008 µg/mL	0.13 µg/mL (≈ 0.194 µM)	0.25 µg/mL (≈ 0.372 µM)	0.031 µg/mL (≈ 0.0461 µM)	0.063 µg/mL (≈ 0.0938 µM)	0.063 µg/mL (≈ 0.0938 µM)	4 µg/mL (≈ 5.95 µM)	4 µg/mL (≈ 5.95 µM)	0.25 µg/mL (≈ 0.372 µM)	2 µg/mL (≈ 2.98 µM)	1 µg/mL (≈ 1.49 µM)	MIC [20]: 64 µg/mL (≈ 95.3 µM); MIC [21]: 0.5 µg/mL (≈ 0.744 µM); MIC [22]: 0.063 µg/mL (≈ 0.0938 µM); MIC [23]: 0.25 µg/mL (≈ 0.372 µM); MIC [24]: 0.13 µg/mL (≈ 0.194 µM); LD50 at 336 h [25]: > 2000 mg/kg
